≈ marks a conversion by molar mass, not a printed value. Like-named read-outs stand apart in the source and are kept apart here.
What was measured:
MCF-7 cells = experiment: Cellular proliferation EdU assay, MCF-7; assay type: cell-based; details: EdU assay, two days, read-out: MCF-7 IC50
How it was run: (§1)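 MCF-7 (800 cells/well) and OVCAR3 (1200 cells/well) in RPMI with 10% FBS exposed to compounds for two days at 37 °C.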

OVCAR3 cells [1] = experiment: Cellular proliferation EdU assay, OVCAR3; assay type: cell-based, human; details: EdU assay, two days, read-out: OVCAR3 IC50
How it was run: as §1

[2] = system: POLR2A Ser2 phosphorylation (CDK9); experiment: POLR2A Ser2 phosphorylation imaging assay in MCF-7 cells; assay type: cell-based; details: Homo sapiens, MCF7, 2 h, MCF-7 cells, 2 hours; read-out: POLR2A Ser2 phosphorylation IC50
How it was run: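 MCF-7 cells were fixed, permeabilised and immunostained for POLR2A phospho-Ser2, then imaged by high-content microscopy. Levels were normalised to controls and IC50 values derived.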

[3] = target: 379 non-CDK kinase (or non-CDK kinase-complex) targets; experiment: Kinase profiling (SelectScreen, ThermoFisher); assay type: biochemical; details: compared with Compound 6
Excerpt: Test compounds were profiled against a broad panel of kinases at ThermoFisher Scientific using the SelectScreen Kinase Profiling Services. Each kinase assay used one of the following assay technology protocols: • 1) Z-LYTE™ Screening Protocol and Assay Conditions (Revised 23 Jan. 2018 version) available at http://assets.thermofisher.com/TFS-Assets/BID/Methods-&-Protocols/20180123_SSBK_Customer_Protocol_and_Assay_Conditions.pdf; • 2) Adapta™ Screening Protocol and Assay Conditions (Revised 23 Jan. 2018 version) available at http://assets.thermofisher.com/TFS-Assets/BID/Methods-&-Protocols/20180123_SSBK_Adapta_Customer_Protocol_and_Assay_Conditions.pdf; or • 3) LanthaScreen™ Eu Kinase Binding Assay Screening Protocol and Assay Conditions (Revised 23 Jan. 2018 version) available at http://assets.thermofisher.com/TFS-Assets/BID/Methods-&-Protocols/20180123_SSBK_LanthaScreen_Binding_Customer_Protocol_and_Assay_Co nditions.pdf.

[4] = system: NPM phosphorylation (Thr199, CDK2-cyclin E complex); experiment: NPM phosphorylation imaging assay in MCF-7 cells; assay type: cell-based; details: 4N DNA cells
How it was run: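 MCF-7 cells were fixed, permeabilised and immunostained, then imaged for phospho-NPM (Thr199), a CDK2-cyclin E site. Analysis was gated on 4N-DNA cells by Hoechst staining. Signals were normalised to controls and fitted for IC50.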

CDK2:CCNE1 = CDK2:CCNE1 (Homo sapiens (Human), UniProt P24941); experiment: NanoBRET assay in MCF-7 cells, CDK2; assay type: cell-based; details: transfected MCF-7 cells, 2 hours, n = 1 or average
How it was run: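 In live MCF-7 cells, compound added followed by NanoBRET TE Tracer K-9 (stock 200 μM) for CDK2, 2 h at 37° C, 5% CO2.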

OVCAR3 cells [5] = experiment: Cell proliferation CyQUANT assay, OVCAR3; assay type: cell-based; details: Homo sapiens, OVCAR-3, 168 h; CyQUANT cell counts, 7 days
Protocol: (§2) An imaging-based assay was used to investigate changes in cell number in OVCAR3 cells (CCNE1-amplified ovarian cancer cell line) and SKOV3 cells (non-amplified ovarian cancer cell line) treated with test compounds.
(§3) Cells were plated in 384 well plates (Perkin-Elmer 6057300) in RPMI-1640/10% FBS/1× L-Glu at 500 cells per well in 30 μL and incubated with test compound at 37° C. and 5% CO2 for 7 days. Cells were then stained using the CyQuant Direct Cell Proliferation Assay Kit (Thermo Cat #C7026) in accordance with the kit protocol. The stained cells were imaged using an Operetta high content imager to generate cell counts and IC50 values were calculated relative to DMSO controls.

SKOV3 cells = experiment: Cell proliferation CyQUANT assay, SKOV3; assay type: cell-based; details: Homo sapiens, SK-OV-3, 168 h; CyQUANT cell counts, 7 days
Protocol: as §2, §3

CDK1:CCNB1 = CDK1:CCNB1 (Homo sapiens (Human), UniProt P06493); experiment: NanoBRET assay in MCF-7 cells, CDK1; assay type: cell-based; details: NanoBRET, transfected MCF-7 cells, 2 hours; n = 1 or average; read-out: CDK1 IC50
CDK1:CCNB1, sequence (P06493 whole entry): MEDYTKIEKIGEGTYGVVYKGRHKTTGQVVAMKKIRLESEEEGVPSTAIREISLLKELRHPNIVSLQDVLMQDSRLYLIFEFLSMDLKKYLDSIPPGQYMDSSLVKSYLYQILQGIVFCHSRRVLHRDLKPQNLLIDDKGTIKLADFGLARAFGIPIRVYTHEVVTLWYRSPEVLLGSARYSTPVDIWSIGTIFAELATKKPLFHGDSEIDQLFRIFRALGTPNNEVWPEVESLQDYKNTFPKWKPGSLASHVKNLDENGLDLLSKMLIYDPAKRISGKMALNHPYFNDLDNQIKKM
CDK1:CCNB1, sequence (P14635 whole entry partner): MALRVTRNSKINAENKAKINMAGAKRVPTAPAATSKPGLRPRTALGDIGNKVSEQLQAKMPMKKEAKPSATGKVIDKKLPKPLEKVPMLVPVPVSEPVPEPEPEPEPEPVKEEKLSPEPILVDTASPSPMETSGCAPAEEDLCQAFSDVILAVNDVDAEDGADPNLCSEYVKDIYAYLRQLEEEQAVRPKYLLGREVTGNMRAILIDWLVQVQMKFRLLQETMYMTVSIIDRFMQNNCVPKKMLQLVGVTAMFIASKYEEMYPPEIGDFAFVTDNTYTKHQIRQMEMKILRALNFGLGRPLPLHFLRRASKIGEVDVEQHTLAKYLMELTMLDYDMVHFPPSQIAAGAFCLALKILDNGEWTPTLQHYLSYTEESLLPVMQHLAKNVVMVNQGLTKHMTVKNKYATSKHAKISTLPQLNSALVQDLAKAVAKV
How it was run: (§4)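 Intracellular target engagement was measured by NanoBRET ratio (460 nm/610 nm) in live MCF-7 cells transiently carrying CDK4:CCND1 (Tracer K-7, 100 μM stock) or CDK1:CCNB1 (Tracer K-9, 400 μM stock).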

CDK4:CCND1 = CDK4:CCND1 (Homo sapiens (Human), UniProt P11802); experiment: NanoBRET assay in MCF-7 cells, CDK4; assay type: cell-based; details: NanoBRET, transfected MCF-7 cells, 2 hours; n = 1 or average; read-out: CDK4 IC50
CDK4:CCND1, sequence (P11802 whole entry): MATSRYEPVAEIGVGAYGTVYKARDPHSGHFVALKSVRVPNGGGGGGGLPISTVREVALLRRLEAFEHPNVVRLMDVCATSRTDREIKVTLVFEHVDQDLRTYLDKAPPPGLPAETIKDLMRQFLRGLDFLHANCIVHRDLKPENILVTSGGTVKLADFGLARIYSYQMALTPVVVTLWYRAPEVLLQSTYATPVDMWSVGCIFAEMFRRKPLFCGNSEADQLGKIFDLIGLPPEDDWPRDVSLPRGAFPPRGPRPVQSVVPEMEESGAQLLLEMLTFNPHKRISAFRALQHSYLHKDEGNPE
CDK4:CCND1, sequence (P24385 whole entry partner): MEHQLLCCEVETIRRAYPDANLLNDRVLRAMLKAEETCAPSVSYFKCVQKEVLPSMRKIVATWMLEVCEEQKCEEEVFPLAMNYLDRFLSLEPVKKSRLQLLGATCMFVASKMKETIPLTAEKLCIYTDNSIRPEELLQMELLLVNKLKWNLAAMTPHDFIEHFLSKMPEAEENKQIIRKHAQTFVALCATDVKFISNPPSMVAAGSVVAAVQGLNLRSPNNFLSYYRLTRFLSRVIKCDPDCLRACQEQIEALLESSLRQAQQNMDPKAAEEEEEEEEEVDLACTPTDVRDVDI
How it was run: as §4

[6] = Aqueous thermodynamic solubility, shake-flask; assay type: physicochemical; details: phosphate buffer 0.1 M, pH 7.4, 24 hours
How it was run: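 After 24 h stirring at 25° C. in pH 7.4 phosphate buffer (0.1 M), solid-free supernatant from two centrifugations was quantified by UPLC/MS/MS after dilution in water. Compound was added as dried material after DMSO removal.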

[7] = CLint assessment in human liver microsomes (HLM); assay type: in vitro ADME; details: 1 μM
How it was run: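 Microsomes preincubated 8 min with NADPH, then compound added and incubated 30 min at 37° C. Remaining compound measured by LC-MS/MS. t1/2 and CLint calculated, with CLint scaled to incubation volume per mg microsomal protein.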

[8] = aqueous phosphate buffer, 25 °C, pH 7.4, aqueous buffer, thermodynamic from solid

| IC50 ([4]; Homo sapiens, MCF7, 2 h) [µM] | IC50 (OVCAR3 cells [5]) [µM] | IC50 (SKOV3 cells) [µM] | solubility at 24 h ([6]; 25° C.) [µM] | IC50 ([4]; 2 hours) [µM] | IC50 (MCF-7 cells) [µM] | IC50 (OVCAR3 cells [1]) [µM] | Structure (SMILES) | IC50 (MCF-7 cells; Homo sapiens, MCF7, 48 h) [µM] | IC50 (OVCAR3 cells [1]; Homo sapiens, OVCAR-3, 48 h) [µM] | IC50 [2] [µM] | kinase inhibition profile [3] | IC50 (CDK2:CCNE1) [µM] | IC50 (CDK1:CCNB1) [µM] | IC50 (CDK4:CCND1) [µM] | solubility at 24 h [6, 8] [µM] | IC50 ([4]; Homo sapiens, MCF7, 2 hours) [µM] | HLM CLint [7] [µL/min/mg] |
| --- | --- | --- | --- | --- | --- | --- | --- | --- | --- | --- | --- | --- | --- | --- | --- | --- | --- |
| 0.017 | 0.034 | 0.514 | – | – | – | – | O=S(=O)(c1ncc[nH]1)N1C[C@@H](F)[C@H](Nc2nc(N[C@@H](CO)C3CC3)nc3c2ncn3C(F)F)C1 (relative stereo) [Example 61, (R)-2-((6-(((3R*,4R*)-1-((1H-imidazol-2-yl)sulfonyl)-4-fluoropyrrolidin-3-yl)amino)-9-(difluoromethyl)-9H-purin-2-yl)amino)-2-cyclopropylethan-1-ol] | – | 0.053 | 1.7 | – | 0.005 | 0.115 | 0.8 | – | – | – |
| 0.064 | – | – | – | – | – | – | CCNS(=O)(=O)N1CC[C@H](Nc2cc(N[C@@H](CC)[C@@H](C)O)nc3c2ncn3CC)C1 [Example 60, (S)—N-ethyl-3-((3-ethyl-5-(((2R,3S)-2-hydroxypentan-3-yl)amino)-3H-imidazo[4,5-b]pyridin-7-yl)amino)pyrrolidine-1-sulfonamide] | 0.637 | 0.089 | 6.1 | – | 0.014 | 0.426 | 2.5 | 51.3 (≈ 22.6 µg/mL) | – | 65.6 |
| – | – | – | 120 (≈ 56 µg/mL) | 0.144 | 0.775 | 0.383 | CCn1cnc2c(N[C@H]3CCN(S(=O)(=O)NC)C3)nc(N[C@@H](C)[C@@H](O)C(F)(F)F)nc21 (single isomer, unassigned) [Example 49, (S)-3-((9-ethyl-2-(((2R*,3S*)-4,4,4-trifluoro-3-hydroxybutan-2-yl)amino)-9H-purin-6-yl)amino)-N-methylpyrrolidine-1-sulfonamide] | – | – | 20.2 | – | 0.013 | 0.907 | 4.4 | – | – | 19.5 |
| 0.31 | – | – | – | – | – | – | CCn1cnc2c(N[C@H]3CCN(S(=O)(=O)CCOC)C3)nc(N[C@@H](CO)C(C)C)nc21 [Example 42, (R)-2-((9-ethyl-6-(((S)-1-((2-methoxyethyl)sulfonyl)pyrrolidin-3-yl)-amino)-9H-purin-2-yl)amino)-3-methylbutan-1-ol] | 0.925 | 0.428 | > 30 | – | 0.027 | 0.875 | 4.5 | 167 (≈ 76.1 µg/mL) | – | 196 |

Continued, compound first:

| Structure (SMILES) | IC50 ([4]; Homo sapiens, MCF7, 2 h) [µM] | IC50 (OVCAR3 cells [5]) [µM] | IC50 (SKOV3 cells) [µM] | solubility at 24 h ([6]; 25° C.) [µM] | IC50 ([4]; 2 hours) [µM] | IC50 (MCF-7 cells) [µM] | IC50 (OVCAR3 cells [1]) [µM] | IC50 (MCF-7 cells; Homo sapiens, MCF7, 48 h) [µM] | IC50 (OVCAR3 cells [1]; Homo sapiens, OVCAR-3, 48 h) [µM] | IC50 [2] [µM] | kinase inhibition profile [3] | IC50 (CDK2:CCNE1) [µM] | IC50 (CDK1:CCNB1) [µM] | IC50 (CDK4:CCND1) [µM] | solubility at 24 h [6, 8] [µM] | IC50 ([4]; Homo sapiens, MCF7, 2 hours) [µM] | HLM CLint [7] [µL/min/mg] |
| --- | --- | --- | --- | --- | --- | --- | --- | --- | --- | --- | --- | --- | --- | --- | --- | --- | --- |
| CCn1cnc2c(N[C@H]3CCN(S(C)(=O)=O)C3)nc(N[C@@H](CO)C(C)C)nc21 [Example 28, (R)-2-((9-ethyl-6-(((S)-1-(methylsulfonyl)pyrrolidin-3-yl)amino)-9H-purin-2-yl)amino)-3-methylbutan-1-ol] | – | – | – | – | – | – | – | 0.699 | 0.186 | > 30 | broadly similar kinase inhibition profiles to Compound 6 | – | – | – | – | – | – |
| CCn1cnc2c(N[C@H]3CCN(S(C)(=O)=O)C3)nc(N[C@@H](CO)C3CC3)nc21 [Example 39, (R)-2-cyclopropyl-2-((9-ethyl-6-(((S)-1-(methylsulfonyl)pyrrolidin-3-yl)amino)-9H-purin-2-yl)amino)ethanol] | – | – | – | – | – | – | – | 0.658 | 0.288 | > 30 | broadly similar kinase inhibition profiles to Compound 6 | – | – | – | – | – | – |
| CC[C@H](Nc1nc(N[C@H]2CCN(S(=O)(=O)NC)C2)c2ncn(CC)c2n1)C(C)(C)O [Example 46, (S)-3-((9-ethyl-2-(((S)-2-hydroxy-2-methylpentan-3-yl)amino)-9H-purin-6-yl)amino)-N-methylpyrrolidine-1-sulfonamide] | – | – | – | – | – | – | – | 3.17 | 1.37 | > 30 | – | 0.192 | 8.37 | 23.7 | > 1000 | 1.17 | 76.6 |
| CC(C)[C@H](CO)Nc1nc(N[C@H]2C[C@H](C)N(S(C)(=O)=O)C2)c2ncn(C(C)C)c2n1 [Example 35, (R)-2-((9-isopropyl-6-(((3S,5S)-5-methyl-1-(methylsulfonyl)-pyrrolidin-3-yl)amino)-9H-purin-2-yl)amino)-3-methylbutan-1-ol] | – | – | – | – | – | – | – | 3.33 | 1.62 | > 30 | – | 0.052 | 6.08 | 11.2 | 26.4 (≈ 11.6 µg/mL) | 1.22 | >300 |
| CCn1cnc2c(N[C@H]3CCN(S(=O)(=O)NC)C3)nc(N[C@@H](CC(F)(F)F)[C@@H](C)O)nc21 (relative stereo) [Example 21, (S)-3-((9-ethyl-2-(((3S*,4R*)-1,1,1-trifluoro-4-hydroxypentan-3-yl)-amino)-9H-purin-6-yl)amino)-N-methylpyrrolidine-1-sulfonamide] | – | – | – | – | – | – | – | 1.45 | 0.578 | > 30 | – | 0.049 | 3.83 | > 29.7 | 606 (≈ 291 µg/mL) | 0.326 | 34.1 |
| CC(C)n1cnc2c(N[C@H]3CCN(S(C)(=O)=O)C3)nc(N[C@@H](CO)C3CC3)nc21 [Example 30, (R)-2-cyclopropyl-2-((9-isopropyl-6-(((S)-1-(methylsulfonyl)-pyrrolidin-3-yl)amino)-9H-purin-2-yl)amino)ethanol] | – | – | – | – | – | – | – | 0.785 | 0.191 | > 30 | – | 0.019 | 0.746 | 5.7 | 276 (≈ 117 µg/mL) | 0.198 | 191 |
| CC[C@H](Nc1nc(N[C@H]2CCN(S(=O)(=O)NC[C@@H]3COCCO3)C2)c2ncn(CC)c2n1)[C@@H](C)O [Example 25, (S)—N—(((R)-1,4-dioxan-2-yl)methyl)-3-((9-ethyl-2-(((2R,3S)-2-hydroxypentan-3-yl)amino)-9H-purin-6-yl)amino)pyrrolidine-1-sulfonamide] | – | – | – | – | – | – | – | 1.43 | 0.642 | > 30 | – | 0.069 | 3.99 | > 29.7 | 912 (≈ 468 µg/mL) | 0.624 | 61.6 |
| CC[C@H](Nc1nc(N[C@H]2CCN(S(=O)(=O)c3cn(C)cn3)C2)c2ncn(C(C)C)c2n1)[C@@H](C)O [Example 32, (2R,3S)-3-((9-isopropyl-6-(((S)-1-((1-methyl-1H-imidazol-4-yl)sulfonyl)pyrrolidin-3-yl)amino)-9H-purin-2-yl)amino)pentan-2-ol] | – | – | – | – | – | – | – | 3.01 | 0.688 | > 30 | – | 0.082 | 2.21 | 28 | > 1000 | 0.607 | 73 |

Reference: US20250197425A1, “2,6,9-TRISUBSTITUTED PURINES” (ASTRAZENECA AB, priority 2022, published 2025)
